In test [1] the target is T1, Amine oxidase [flavin-containing] B (Rattus norvegicus, UniProt P19643).
T1 sequence (P19643 whole entry): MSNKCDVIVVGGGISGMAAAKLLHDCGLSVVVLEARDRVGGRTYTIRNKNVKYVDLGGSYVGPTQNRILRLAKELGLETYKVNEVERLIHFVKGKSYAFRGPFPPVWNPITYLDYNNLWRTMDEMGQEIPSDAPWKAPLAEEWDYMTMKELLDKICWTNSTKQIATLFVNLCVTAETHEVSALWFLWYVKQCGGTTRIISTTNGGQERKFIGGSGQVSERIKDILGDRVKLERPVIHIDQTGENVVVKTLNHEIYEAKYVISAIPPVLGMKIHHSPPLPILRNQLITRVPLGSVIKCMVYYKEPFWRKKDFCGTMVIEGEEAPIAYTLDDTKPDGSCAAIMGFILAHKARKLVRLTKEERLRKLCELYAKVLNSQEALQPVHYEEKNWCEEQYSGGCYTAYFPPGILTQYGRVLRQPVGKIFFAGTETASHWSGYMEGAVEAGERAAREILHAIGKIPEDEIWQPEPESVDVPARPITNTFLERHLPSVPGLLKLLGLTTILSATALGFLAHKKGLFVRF
In words: In vitro inhibitory activity against monoamine oxidase B (MAO-B) in rat brain homogenate. It is filed as tissue-based.

Test [2] has as its target T2, Amine oxidase [flavin-containing] A (Rattus norvegicus, UniProt P21396).
T2 sequence (P21396 whole entry): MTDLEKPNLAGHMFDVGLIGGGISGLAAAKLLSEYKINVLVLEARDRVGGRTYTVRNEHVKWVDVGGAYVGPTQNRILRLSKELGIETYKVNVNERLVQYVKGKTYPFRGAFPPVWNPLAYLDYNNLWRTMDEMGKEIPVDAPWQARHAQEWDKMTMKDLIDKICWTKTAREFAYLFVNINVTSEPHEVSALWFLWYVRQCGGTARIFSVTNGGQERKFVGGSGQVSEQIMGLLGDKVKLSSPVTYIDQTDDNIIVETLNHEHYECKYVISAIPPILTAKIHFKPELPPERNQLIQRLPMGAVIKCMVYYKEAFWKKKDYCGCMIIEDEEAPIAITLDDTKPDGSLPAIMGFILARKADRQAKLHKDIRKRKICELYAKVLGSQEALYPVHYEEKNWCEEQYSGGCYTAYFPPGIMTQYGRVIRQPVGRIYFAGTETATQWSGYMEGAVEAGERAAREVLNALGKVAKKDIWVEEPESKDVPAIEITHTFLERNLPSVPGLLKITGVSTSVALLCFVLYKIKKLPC
In words: In vitro inhibitory against monoamine oxidase A (MAO-A) in rat brain homogenate. It is filed as tissue-based.

Bounds are passed on as bounds.

`COc1ccc2c(C)c(C)c(=O)oc2c1`: the IC50 (as a rule, the concentration needed to halve the response being measured) is 0.5 nM in test [1] and 71 nM in test [2]. For the compound `Cc1nnc(COc2ccc3c(C)c(C)c(=O)oc3c2)o1`, the IC50 in test [1] was determined as 15 nM; in test [2], 5600 nM.

`Cc1c(C)c2ccc(OCc3nc(C(C)C)no3)cc2oc1=O`: the IC50 in test [2] was > 10000 nM. As for `Cc1c(C)c2ccc(OC(C)c3ccc(C(C)C)cc3)cc2oc1=O` (stereo not given), the IC50 in test [1] is 10000 nM; in test [2] it was > 10000 nM.

For the compound `Cc1c(C)c2ccc(OCc3csc(C(C)C)n3)cc2oc1=O`, the figures for the IC50 in test [1] and in test [2] were 1.4 nM and 10000 nM, respectively. The matching figures for `Cc1c(C)c2ccc(O)cc2oc1=O`: > 10000 nM and ~10000 nM. For `Cc1c(C)c2ccc(OCc3cc(C4CC4)on3)cc2oc1=O`, in that order: 0.8 nM and 7000 nM. As to `COc1cc(Br)c2oc(C3CCNCC3)cc2c1` [BROFAROMINE], 5 nM corresponded to half-maximal inhibition in test [2] (IC50). With `CCCCCCCCS(=O)(=O)Oc1ccc2c(C)c(C)c(=O)oc2c1`, the IC50 in test [1] is > 10000 nM. Take `Cc1c(C)c2ccc(OCc3ccc(C(C)C)cc3)c(C)c2oc1=O`: the IC50 in test [1] and in test [2] was > 10000 nM throughout. On to `Cc1c(C)c2ccc(OCc3ccccn3)cc2oc1=O`, for which the IC50 in test [1] is 9 nM; in test [2] it was 1800 nM.

Regarding `CCCCCS(=O)(=O)Oc1ccc2c(C)c(C)c(=O)oc2c1`, the values for the IC50 in test [1] and in test [2] were 2200 nM and 16 nM, respectively.

For `Cc1c(C)c2ccc(OCc3nnc(C(C)C)s3)cc2oc1=O` [ATIBEPRONE], the IC50 in test [1] is 0.9 nM; in test [2], > 10000 nM. For the compound `CCS(=O)(=O)Oc1ccc2c(C)c(C)c(=O)oc2c1` [ESUPRONE], in test [1], the IC50 was determined as 5000 nM.

For `Cc1c(C)c2ccc(OS(C)(=O)=O)cc2oc1=O`, the IC50 in test [1] is > 10000 nM.
